Test results taken from PMC8341910, “Structural and biophysical insights into the mode of covalent binding of rationally designed potent BMX inhibitors” (RSC Chemical Biology, 2020).
Converted amounts (≈) assume the structure as drawn. “And” between values parts separate entries of the source, which are not always exact repeats. Equal values may be shown once. Read-outs that look alike come from different tables or passages of the source.

Experiments:
[1] = molecular target: T1, BMX (Homo sapiens, UniProt P51813); experiment: BMX biochemical activity assay (HTRF, phosphorylation of a biotinylated peptide); settings: for LE (BMX): ligand efficiency; for LipE (BMX): lipophilic efficiency
T1 sequence (P51813 1-675): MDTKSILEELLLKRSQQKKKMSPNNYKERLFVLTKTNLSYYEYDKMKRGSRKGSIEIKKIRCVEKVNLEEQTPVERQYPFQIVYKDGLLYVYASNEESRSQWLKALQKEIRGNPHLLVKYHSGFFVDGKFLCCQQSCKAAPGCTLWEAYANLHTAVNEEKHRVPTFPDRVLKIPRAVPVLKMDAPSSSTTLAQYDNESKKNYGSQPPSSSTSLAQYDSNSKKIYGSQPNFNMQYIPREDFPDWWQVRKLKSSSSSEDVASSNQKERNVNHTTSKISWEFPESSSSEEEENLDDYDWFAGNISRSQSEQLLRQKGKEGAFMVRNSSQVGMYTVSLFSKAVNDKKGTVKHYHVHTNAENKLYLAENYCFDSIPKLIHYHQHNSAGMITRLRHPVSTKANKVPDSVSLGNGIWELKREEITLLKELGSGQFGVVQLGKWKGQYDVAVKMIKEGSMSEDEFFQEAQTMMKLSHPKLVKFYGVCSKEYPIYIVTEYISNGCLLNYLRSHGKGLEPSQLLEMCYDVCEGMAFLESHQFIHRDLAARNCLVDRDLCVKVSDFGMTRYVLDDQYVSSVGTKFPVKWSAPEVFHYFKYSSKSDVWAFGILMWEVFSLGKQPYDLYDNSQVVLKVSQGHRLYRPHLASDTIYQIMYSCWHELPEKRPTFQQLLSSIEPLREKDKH

[2] = Dynamic light scattering, colloidal aggregation; format: physicochemical; settings: measured at 10 µM, 1 µM and 100 nM, 25 °C, read-out: DLS maximum soluble concentration at which no aggregates are observed
Description: In addition, we measured particle sizes by using dynamic light scattering (DLS).
DLS is measured at 10 µM, 1µM and 100 nM. The maximum soluble
concentration – at which no aggregates are observed - is indicated and the colour code indicates
Dynamic Light Scattering:
Dynamic light scattering (Zetasizer Nano S, Malvern, UK) was used to determine compound colloidal aggregation. […] A 10 mM stock solution of
test compounds was prepared in DMSO, following dilution to deionized and filtered water to
obtain an analyte solution of 10 μM (0.1% DMSO). Colloidal aggregation was measured
through sequential dilutions at 10 μM, 1 μM and 0.1 μM.

[3] = test system: LNCaP; experiment: Multi cell line growth assay (CellTiter-Glo, 72 h); format: cell-based, human; settings: Prostate, ND = no growth inhibition observed within the concentrations tested
[4] = test system: 22 RV1; experiment: Multi cell line growth assay (CellTiter-Glo, 72 h); format: cell-based, human; settings: Prostate, ND = no growth inhibition observed
[5] = test system: SK-N-MC; experiment: Multi cell line growth assay (CellTiter-Glo, 72 h); format: cell-based, human; settings: Brain, ND = no growth inhibition observed
[6] = test system: Jurkat; experiment: Multi cell line growth assay (CellTiter-Glo, 72 h); format: cell-based, human; settings: Blood, ND = no growth inhibition observed
[7] = test system: Kasumi; experiment: Multi cell line growth assay (CellTiter-Glo, 72 h); format: cell-based, human; settings: Blood, ND = no growth inhibition observed
[8] = test system: CAOV3; experiment: Multi cell line growth assay (CellTiter-Glo, 72 h); format: cell-based, human; settings: Ovary, ND = no growth inhibition observed
[9] = test system: H1299; experiment: Multi cell line growth assay (CellTiter-Glo, 72 h); format: cell-based, human; settings: Bone marrow (so in the source), ND = no growth inhibition observed
[10] = test system: RS4(11); experiment: Multi cell line growth assay (CellTiter-Glo, 72 h); format: cell-based, human; settings: Lung (so in the source), ND = no growth inhibition observed
[11] = test system: DAUDI; experiment: Multi cell line growth assay (CellTiter-Glo, 72 h); format: cell-based, human; settings: Lymphoid, ND = no growth inhibition observed
[12] = pH 6.8
Description: (§1) For assessment of drug permeability, we relied on parallel artificial membrane permeability assay (PAMPA) performed at Pion Inc. with the PAMPA Evolution™ instrument (Table S1, ESI ^†).
(§2) methods (ESOL model1 and Ali et al.2) PAMPA: Pe is effective permeability (x10-6 cm/sec)
(§3) measured directly from assay at pH 6.8 and %R is membrane retention.
(§4) as the average of quadruplicates. Und label refers to compounds with extremely low solubility
(§5) for which UV limits were below the detection limits therefore considered undetected.
(§6) Compounds were labelled as high permeability (green), medium permeability (orange) or low
(§7) Artificial Membrane Permeability (PAMPA):
(§8) The PAMPA Evolution™ instrument was used to determine permeability, at Pion Inc. In
(§9) PAMPA, a sandwich is formed such that each composite well is divided into two chambers,
(§10) measured at pH 6.8 in the donor compartment using low-binding, low UV Prisma buffer. The
(§11) drug-free acceptor compartment was filled with acceptor sink buffer containing a scavenger at
(§12) the start of the test. The proprietary scavenger mimics serum proteins and blood circulation,
(§13) thus creating sink conditions. Aqueous solutions of studied compounds are prepared by diluting
(§14) and thoroughly mixing 3 µL of DMSO stock in 600 µL of Prisma HT buffer. Final
(§15) concentration of organic solvent (DMSO) in aqueous buffer is ≤ 0.5% (v/v). The reference
(§16) solution is identical to the donor at time zero, so that any surface adsorption effects from the
(§17) plastic ware is compensated. The PAMPA sandwich was assembled and allowed to incubate
(§18) for ~15 hours. The solutions in the donor compartment were un-stirred within duration of the
(§19) experiment. Thus, the thickness of the aqueous boundary layer expected to be about 1000 µm.
(§20) The sandwich was then separated, and both the donor and receiver compartments were assayed
(§21) for the amount of drug present by comparison with the UV spectrum obtained from reference

[13] = molecular target: T2, recombinant human BMX protein (hBMX) (Homo sapiens, UniProt P51813); experiment: Differential scanning fluorimetry (DSF); format: binding; settings: 100 μM compound; for Average Tm of BMX with compound: apo-BMX Tm 51.8-52.2 °C; for ΔTm at 100 µM: read-out: ΔTm
T2 construct: Crystallization, data collection, and structure determination of BMX catalytic domain in; made in house; host or cells: Sf-9 insect cells
Description: We further characterized the binding interaction between JS24–JS27 and BMX by using differential scanning fluorimetry (DSF) and surface plasmon resonance (SPR). Purified recombinant human BMX protein (hBMX) was first subjected to thermal scanning in the absence and presence of JS24–JS27, and the respective protein melting temperature (Tm) calculated.
Differential Scanning Fluorimetry:
DSF was performed in MicroAmp™ EnduraPlate™ Optical 96 -Well Clear Reaction Plates
with Barcode (Applied Biosystems, Life Technologies, California, USA) using a QuantStudio
7 Flex Real-Time PCR System (Applied Biosystems). Pre-incubation of the protein with the
compound for 2 hours at 4 °C was required prior to DSF experiments. The final reaction mixture
(20 μL of total volume) contained 4 μg of His6-BMX, 4-fold of Protein Thermal Shift™ Dye
(Applied Biosystems) diluted in protein buffer solution, and 100 μM of compound. The
temperatures were obtained by taking the midpoint of each transition.

[14] = test system: PC3; experiment: Multi cell line growth assay (CellTiter-Glo, 72 h); format: cell-based, human; settings: Prostate, ND = no growth inhibition observed
[15] = molecular target: T3, His6-hsBMX (Homo sapiens, UniProt P51813); experiment: Surface plasmon resonance (SPR); format: binding; settings: 1:1 Langmuir fit, 25 °C
T3 construct: Crystallization, data collection, and structure determination of BMX catalytic domain in; made in house; host or cells: Sf-9 insect cells
Description: response upon compound injection (t=0s), or upon washing (t=220s), on immobilized His6-
hsBMX surfaces. Compound concentrations injected on already saturated surfaces were not
included in the 1:1 Langmuir fitting model. X-axis: time (s); y-axis: response (arbitrary units).
Inset plots [x-axis: compound concentration (M); y-axis: response (arbitrary units)] show the
steady-state affinity (KDss) fit for the interactions wherein equilibrium was reached.
Surface Plasmon Resonance:
The kinetic and affinity parameters of protein-compound interaction were evaluated by SPR.
Experiments were carried out in a Biacore 4000 instrument (Biacore AB, GE Healthcare Life
Sciences, Uppsala, Sweden) at 25 °C. His6-BMX protein was diluted to 10 µg/mL in sodium
acetate pH 5.5, in the presence of 5 µM staurosporine and immobilized onto CM5 (Series S)
sensor chips, using the standard amine coupling procedure. Prior to immobilization, the
carboxymethylated surface of the chip was activated with 400 mM 1-ethyl-3-(3-
dimethylaminopropyl)-carbodiimide and 100 mM N-hydroxysuccinimide for 10 min. HBS-N
(10 mM HEPES pH7.4, 150mM NaCl) was used as the background buffer. Protein was coupled
to the surface after 2 to 10 min injection times, at a flow rate of 10 µL/min, in order to reach
1500 to 3500 response units (RU). The remaining activated carboxymethylated groups were
blocked with a 7 min injection of 1 M ethanolamine pH 8.5. Compounds were pre-diluted in
DMSO to 50x the desired highest tested concentration and diluted afterwards in running buffer
(20 mM HEPES pH 7.4, 150 mM NaCl, 1 mM DTT, 0.1 mM EGTA, 0.05 % (v/v) TWEEN-
20, 5 mM MgCl2) in order to reach 2% of DMSO concentration. A DMSO solvent correction
(1% - 3%) was performed to account for variations in bulk signal and to achieve high-quality
data. Each compound was injected over immobilized His6-BMX for 220 s (30 µL min-1;
association phase) followed by 600 to 2000 s of buffer flow (dissociation phase) at a maximum
five times in 2-fold dilution series. All sensorgrams were processed by first subtracting the
binding response recorded from the control surface (reference spot), followed by subtracting
the buffer blank injection from the reaction spot. All datasets were fit to a simple 1:1 Langmuir
interaction model with the provided Biacore 4000 Evaluation software, to determine kinetic rate constants (kon, koff) or steady-state affinity (KDss).

[16] = test system: LNCaP cells; experiment: LNCaP cell growth assay (CellTiter-Glo, 96 h); format: cell-based; settings: Homo sapiens, 96-well plates, mean of three experiments in triplicate, read-out: GI50 LNCaP
Description: (§22) GI50 values are reported in μM and are the mean of three individual experiments performed in triplicate. N.d., non-determined, no growth inhibition observed within the concentrations tested.
(§23) Cellular activity Assay: LNCaP and PC-3 Cell Growth Assay
(§24) Cells were seeded in white, opaque-bottom 96-well plates at 5000 cells/well (LNCaP) or 2000 cells/well (PC-3) in a total volume of 100 µL of culture media.
(§25) fold) in 100 µL media were added to the cells 24 hours later. After 96 hours incubation cellular viability was assessed by CellTiter-Glo® (Promega) according to the manufacturer’s instructions. The values were normalized to vehicle and IC50 was calculated using GraphPad

[17] = in vitro; settings: PAMPA
Description: as §1, §2, §3, §4, §5, §6, §7, §8, §9, §10, §11, §12, §13, §14, §15, §16, §17, §18, §19, §20, §21

[18] = molecular target: T1, BMX; experiment: Kinetic characterization with ADP-Glo kinase assay; format: biochemical; set-up: purchased Promega Corporation (USA) V4512; settings: duplicate, mean ± S.D.
Description: The inactivation of BMX occurs in a two-step process that is governed by two parameters: the affinity of the initial non-covalent binding, KI, and the rate of the subsequent covalent bond-forming reaction with the thiol of the cysteine residue, kinact. […]. […] Thus, taking into account that all the analogues have the same Michael acceptor moiety, the enhanced activity must be a result of the structural modifications introduced in the scaffold. […]
Kinetic characterization using an ADP-GLOTM kinase assay:
The BMX enzyme system (Catalog. V4512) and the ADP-GloTM kinase assay were purchased from Promega Corporation (USA). In each kinase reaction, the concentration of BMX was set to 4.5 ng/µL. The peptide substrate Poly (4:1 Glu, Tyr) and ATP concentrations were set to 0.25 mg/mL and 50 µM, respectively. BMX was pre-incubated with different inhibitor concentrations (10-fold serial dilutions, starting at 1 mM), over different time periods (2 - 60 min), before initiating the kinase reactions. Reactions were started by adding 2.5X Poly E4Y1/ATP mixture. The reactions were carried out in a 384-well plate, stopping all at the same time with the addition of 5 µL of ADP-GloTM reagent, to consume the remaining ATP within 40 min. Then, 10 µL of kinase detection reagent was added into the wells and incubated for 30 min to produce a luminescence signal. The signal was measured using an Infinite M200 […]
observed rate constants for inhibition (kobs), at different inhibitor concentrations, were determined from the slope of a semi-logarithmic plot of inhibition versus time, and re-plotted against inhibitor concentration (nM). The experimental values were fitted into a hyperbolic function using GraphPad Prism 8 ([…]), to obtain the KI, kinact, and kinact/KI, as described previously.12 […]
(Thermo Fisher Scientific) using gold-coated glass needles. […]

[19] = molecular target: BTK (Homo sapiens, UniProt Q06187); experiment: BTK biochemical activity assay (radiometric, KinaseProfiler); set-up: purchased Eurofins DiscoverX KinaseProfiler (contract assay)
[20] = test system: PC3 cells; experiment: PC-3 cell growth assay (CellTiter-Glo, 96 h); format: cell-based; settings: Homo sapiens, PC-3; 96 h, 96-well plates; N.d. = no growth inhibition observed within the concentrations tested; read-out: GI50 PC3
Description: as §22, §23, §24, §25

[21] = test system: LNCaP cells; experiment: Anti-proliferative co-treatment assays in LNCaP; format: cell-based; settings: JS24 3 μM, JS25 5 μM, JS26 6 μM, 5 days
[22] = relative to the control of the same set of experiments
[23] = Experiment 4 of Fig. S3 = Fig. 1b, duplicate, mean ± S.D., read-out: BMX inhibition IC50
[24] = deionized and filtered water (0.1% DMSO), kinetic from dmso stock
[25] = pH 6.8, PAMPA/Pe effective permeability

Chain of BTK (Q06187 whole entry, species assumed): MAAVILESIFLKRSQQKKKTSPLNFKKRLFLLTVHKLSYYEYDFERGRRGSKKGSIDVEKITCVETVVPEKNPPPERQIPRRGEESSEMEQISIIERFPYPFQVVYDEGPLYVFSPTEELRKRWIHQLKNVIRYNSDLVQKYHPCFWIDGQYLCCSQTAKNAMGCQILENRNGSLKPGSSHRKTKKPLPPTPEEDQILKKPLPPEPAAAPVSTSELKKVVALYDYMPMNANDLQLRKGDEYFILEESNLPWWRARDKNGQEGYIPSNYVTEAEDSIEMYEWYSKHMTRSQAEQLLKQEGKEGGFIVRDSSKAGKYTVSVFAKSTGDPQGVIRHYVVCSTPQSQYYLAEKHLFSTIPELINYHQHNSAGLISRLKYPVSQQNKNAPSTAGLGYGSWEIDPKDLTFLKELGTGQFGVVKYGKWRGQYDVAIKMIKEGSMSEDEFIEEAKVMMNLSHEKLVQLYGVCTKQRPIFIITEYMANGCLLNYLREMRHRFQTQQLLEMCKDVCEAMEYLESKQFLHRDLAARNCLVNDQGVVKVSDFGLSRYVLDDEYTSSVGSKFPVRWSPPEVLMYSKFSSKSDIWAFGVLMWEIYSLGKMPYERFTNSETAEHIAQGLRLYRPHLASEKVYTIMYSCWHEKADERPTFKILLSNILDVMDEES

Structure (SMILES): CC=CC(=O)Nc1cc(-n2c(=O)ccc3cnc4ccc(-c5ccc(NS(C)(=O)=O)cc5)cc4c32)ccc1C [JS10]
- IC50 ([1]; Experiment 1 of Fig. S3, control JS9A (in-house BMX-IN-1), read-out: BMX IC50): 21 ± 7.25 µM
- BMX potency loss (fold) against control BMX-IN-1 [1, 22]: 58 fold
- solubility ([2]; water): 0.1 µM (≈ 0.0539 µg/mL)
- GI50 [3]: 9.7 µM
- GI50 [4]: 4.86 ± 0.11 µM
- GI50 [5]: 11.2 µM
- GI50 [6]: 9.71 ± 1.48 µM
- GI50 [7]: 4.37 ± 0.04 µM
- GI50 [8]: 17.3 µM
- GI50 [9]: 19.4 µM
- GI50 [10]: 5.06 µM
- GI50 [11]: 2.57 ± 0.09 µM
- PAMPA/%R membrane retention [12]: 33±4%
- PAMPA/Pe effective permeability [12]: 28±4 x10-6 cm/sec

Structure (SMILES): CC(C)=CC(=O)Nc1cc(-n2c(=O)ccc3cnc4ccc(-c5ccc(NS(C)(=O)=O)cc5)cc4c32)ccc1C [JS11]
- solubility ([2]; water): 0.1 µM (≈ 0.0553 µg/mL)
- ΔTm ([13]; versus apo-BMX): 0.34±0.11 °C
- Average Tm of BMX with compound [13]: 52.26±0.11 °C
- GI50 [3]: 10.4 µM
- GI50 [4]: 7.3 µM
- GI50 [14]: 20.1 µM
- GI50 [5]: 8.24 µM
- GI50 [6]: 6.36 ± 0.17 µM
- GI50 [7]: 10.14 ± 0.07 µM
- GI50 [8]: 19.3 µM
- GI50 [10]: 6.66 µM
- GI50 [11]: 4.57 ± 0.12 µM
- PAMPA/%R membrane retention [12]: 54±9%
- PAMPA/Pe effective permeability [12]: 31±4 x10-6 cm/sec

Structure (SMILES): C=CC(=O)Nc1cccc(-n2c(=O)ccc3cnc4cc(N5CCN(S(C)(=O)=O)CC5)ccc4c32)c1 [JS27]
- IC50 [1, 23]: 0.0137 µM
- LE (BMX) [1]: 0.30
- LipE (BMX) [1]: 5.54
- BMX potency gain (fold) against BMX-IN-1 [1, 22]: ≈ 4 fold
- solubility [2, 24]: ≥ 10 µM
- ΔTm at 100 µM ([13]; versus apo-BMX): 10.81 ± 0.06 °C
- Average Tm of BMX with compound [13]: 62.94±0.06 °C
- koff [15]: < 0.0001 s⁻¹
- kon [15]: 99000 M⁻¹ s⁻¹
- GI50 [16]: 9.3 µM
- PAMPA/%R membrane retention [12]: 42±14%
- Papp ([17]; pH 6.8, PAMPA permeability): 12 ×10⁻⁶ cm/s
- Papp [17, 25]: 12 ± 2 ×10⁻⁶ cm/s
- k inact [18]: 0.166 min⁻¹ and 0.166 ± 0.003 min⁻¹
- BTK potency gain (fold) relative to BMX-IN-1 [19]: 15 fold
- IC50 ([19]; duplicate, mean ± S.D., read-out: BTK inhibition IC50): 0.0243 ± 0.0003 µM
- LE (BTK) ([19]; ligand efficiency): 0.29
- LipE (BTK) ([19]; lipophilic efficiency): 5.29

Structure (SMILES): C=CC(=O)Nc1cccc(-n2c(=O)ccc3cnc4cc(-c5ccc(NS(C)(=O)=O)cc5)ccc4c32)c1 [JS26]
- IC50 [1, 23]: 0.0091 µM
- LE (BMX) [1]: 0.30
- LipE (BMX) [1]: 4.45
- solubility [2, 24]: ≥ 10 µM
- ΔTm at 100 µM ([13]; versus apo-BMX): 9.34 ± 0.21 °C
- Average Tm of BMX with compound [13]: 61.47±0.21 °C
- koff [15]: < 0.0001 s⁻¹
- kon [15]: 72000 M⁻¹ s⁻¹
- GI50 [16]: 7.7 µM
- GI50 [20]: 10.1 ± 1.3 µM
- decrease in cell viability ([21]; co-treatment with AKT1/2 (1 μM), relative to control AKT1/2): 63%
- decrease in cell viability ([21]; co-treatment with LY294002 (3 μM)): 35%
- PAMPA/%R membrane retention [12]: 8±14%
- Papp ([17]; pH 6.8, PAMPA permeability): 19 ×10⁻⁶ cm/s
- Papp [17, 25]: 19 ± 13 ×10⁻⁶ cm/s
- k inact [18]: 0.443 min⁻¹ and 0.443 ± 0.003 min⁻¹
